# Measurements reported in patent US20250127937A1, “FAP INHIBITOR” (UNIVERSITÄT HEIDELBERG, priority 2018, published 2025).
# How the values were obtained:
# HT-1080-FAP cells [1] = experiment: Efflux experiments in HT-1080-FAP cells; type: cell-based, human; conditions: after 24 h in compound-free medium
# Protocol: (§1) Radioligand binding studies were performed using HT-1080-FAP cells. The radiolabeled compound was added to the cell culture and incubated for different time intervals ranging from 10 min to 24 h. Competition experiments were performed by simultaneous exposure to unlabeled (10^−5 M to 10^−9M) and radiolabeled compound for 60 min. For efflux experiments, radioactive medium was removed after incubation for 60 min and replaced by non-radioactive medium for time intervals ranging from 1 to 24 h. For internalization experiments, surface bound activity was removed by incubating the cells with 1 M glycine-HCl buffer for 10 min. The radioactivity was measured using a γ-counter, normalized to 1 mio cells and calculated as percentage of applied dose (% ID).
# (§2) For radioligand binding studies, cells were seeded in 6-well plates and cultivated for 48 h to a final confluence of approx. 80-90% (1.2-2 mio cells/well). The medium was replaced by 1 mL fresh medium without fetal calf serum. The radiolabeled compound was added to the cell culture and incubated for different time intervals ranging from 10 min to 24 h. Competition experiments were performed by simultaneous exposure to unlabeled (10^−5 M to 10^−9 M) and radiolabeled compound for 60 min. For efflux experiments, radioactive medium was removed after incubation for 60 min and replaced by non-radioactive medium for time intervals ranging from 1 to 24 h. In all experiments, the cells were washed with 1 mL phosphate-buffered saline pH 7.4 for 2 times and subsequently lysed with 1.4 ml lysis buffer (0.3 M NaOH, 0.2% SDS). Radioactivity was determined in a γ-counter (Cobra II, Packard), normalized to 1 mio cells and calculated as percentage of the applied dose (% ID). Each experiment was performed 3 times, and 3 repetitions per independent experiment were acquired.
# Capan-2 tumor xenografts [2] = experiment: Dynamic small-animal PET, two-tissue compartment model, Capan-2 xenografts; type: in vivo, mouse; conditions: 68Ga-FAPI-02, Capan-2, − comp.
# Protocol: (§3) For in vivo experiments, 8 week old BALB/c nu/nu mice (Charles River) were subcutaneously inoculated into the right trunk with 5×10^6 with HT-1080-FAP, Capan-2 or SK-LMS-1 cells, respectively. When the size of the tumor reached approximately 1 cm^3, the radiolabeled compound was injected via the tail vein (˜10 MBq for small-animal PET imaging; ˜1 MBq for organ distribution). PET imaging was performed up to 140 min after intravenous injection of 1 MBq of Ga-68 labeled compound per mouse using the Inveon PET small-animal PET scanner (Siemens). Images were reconstructed iteratively using the 3D-OSEM+MAP method and were converted to standardized uptake value (SUV) images. Quantification was done using a ROI technique and expressed as SUV mean. For organ distribution of Lu-177 labeled compound (approx. […] per mouse), the animals (n=3 for each time point) were sacrificed after indicated time points (from 30 min to 24 h). The distributed radioactivity was measured in all dissected organs and in blood using a γ-counter (Cobra Autogamma, Packard). The values are expressed as percentage of injected dose per gram of tissue (% ID/g).
# For pharmakokinetic modeling the transport constant K1 and the rate constants k2-k4 were calculated using a two-tissue compartment model implemented in the PMOD software, taking into account the vascular fraction (vB), which is associated with the volume of blood exchanging with tissue in a VOI. The rate constants that describe the compartmental fluxes include k1 (binding to the receptor), k2 (detachment) as well as k3 (internalization) and k4 (efflux) in the tumor tissue. In this model the fractional volume of distribution (DV=K1/k2) is the proportion of the region of interest in which […] is distributed.
# HT-1080-FAP cells [3] = experiment: Radioligand binding and internalization in HT-1080-FAP cells; type: cell-based, human
# Protocol: as §1, §2
# For internalization experiments the cells were incubated with the radiolabeled compound for 60 min at 37° C. and 4° C. Cellular uptake was terminated by removing medium from the cells and washing 2 times with 1 mL PBS. Subsequently, cells were incubated with 1 mL of glycine-HCl (1 Min PBS, pH 2.2) for 10 min at room temperature to remove the surface bound activity. The cells were washed with 2 mL of ice-cold PBS and lysed with 1.4 mL of lysis buffer to determine the internalized fraction. For the cells incubated at 4° C., all washing and elution steps were carried out using ice-cold buffers. The radioactivity was measured using a γ-counter, normalized to 1 mio cells and calculated as percentage of applied dose (% ID).
# human CD26 = human CD26 (Homo sapiens (Human), UniProt P27487); experiment: Radioligand binding to CD26 expressing cells (HEK-CD26); conditions: 60 min incubation
# Protocol: In vitro binding studies were performed using the human tumor cell lines BxPC3, Capan-2, MCF-7 (purchased from Sigma Aldrich Chemie GmbH) and SK-LMS-1 (purchased from ATCC) as well as stably transfected FAP-cell lines HT-1080-FAP, HEK-muFAP and the CD26 expressing cell line HEK-CD26 (obtained from Stefan Bauer, NCT Heidelberg). All cells were cultivated in Dulbecco's modified Eagle's medium (DMEM) containing 10% fetal calf serum at 37° C./5% carbon dioxide. For fluorescence internalization experiments, cells were seeded on coverslips and stained with FAPI-02-Atto488 and DAPI for cell nucleus staining. Images were acquired on a laser scanning confocal microscope using a 63× oil immersion objective.
# For radioligand binding studies, cells were seeded in 6-well plates and cultivated for 48 h to a final confluence of approx. 80-90% (1.2-2 mio cells/well). The medium was replaced by 1 mL fresh medium without fetal calf serum. The radiolabeled compound was added to the cell culture and incubated for different time intervals ranging from 10 min to 24 h. Competition experiments were performed by simultaneous exposure to unlabeled (10^−5 M to 10^−9 M) and radiolabeled compound for 60 min. […] Radioactivity was determined in a γ-counter (Cobra II, Packard), normalized to 1 mio cells and calculated as percentage of the applied dose (% ID). […]
# Capan-2 tumor xenografts [4] = experiment: Organ distribution ex vivo in Capan-2 tumor bearing nude mice; parameters: species or system mouse; conditions: Lu-177 labeled, 1 h after i.v., Capan-2, mean ± SD, n = 3
# Protocol: as §3
# human CD26, sequence (P27487 whole entry): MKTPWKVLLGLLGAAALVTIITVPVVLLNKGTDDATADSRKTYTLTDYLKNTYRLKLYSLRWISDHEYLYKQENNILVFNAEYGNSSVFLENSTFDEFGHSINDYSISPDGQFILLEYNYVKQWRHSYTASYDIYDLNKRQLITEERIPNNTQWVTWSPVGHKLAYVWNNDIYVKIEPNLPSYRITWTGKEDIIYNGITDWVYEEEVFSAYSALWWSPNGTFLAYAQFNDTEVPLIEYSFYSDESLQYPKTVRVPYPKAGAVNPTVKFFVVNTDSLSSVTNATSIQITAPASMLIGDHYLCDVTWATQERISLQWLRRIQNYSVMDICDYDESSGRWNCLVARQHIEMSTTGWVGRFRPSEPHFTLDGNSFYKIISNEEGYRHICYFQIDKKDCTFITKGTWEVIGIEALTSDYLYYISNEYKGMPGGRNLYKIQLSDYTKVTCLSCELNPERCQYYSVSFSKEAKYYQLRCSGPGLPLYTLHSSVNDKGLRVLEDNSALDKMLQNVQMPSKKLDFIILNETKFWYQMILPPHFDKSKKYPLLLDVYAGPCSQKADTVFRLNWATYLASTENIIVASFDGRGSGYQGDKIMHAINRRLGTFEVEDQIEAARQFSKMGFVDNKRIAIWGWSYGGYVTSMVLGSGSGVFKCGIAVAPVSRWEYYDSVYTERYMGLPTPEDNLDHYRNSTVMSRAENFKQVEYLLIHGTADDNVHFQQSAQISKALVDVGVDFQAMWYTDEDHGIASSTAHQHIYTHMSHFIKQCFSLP
smiles,measurement,setting,value
N#C[C@@H]1CCCN1C(=O)CNC(=O)c1ccnc2ccc(OCCCN3CCN(C(=O)CN4CCN(CC(=O)O)CCN(CC(=O)O)CCN(CC(=O)O)CC4)CC3)cc12 [FAPI-02],retention of the originally accumulated radioactivity (efflux),HT-1080-FAP cells [1],12%
same,Flux,Capan-2 tumor xenografts [2],0.03 ml/ccm/min
same,Vs (ratio of specific binding concentration to total parent at equilibrium),Capan-2 tumor xenografts [2],0.93 ml/ccm
same,Vt (total distribution volume),Capan-2 tumor xenografts [2],1.44 ml/ccm
same,k1,Capan-2 tumor xenografts [2],0.08 ml/ccm/min
same,k2,Capan-2 tumor xenografts [2],0.16 min⁻¹
same,k3,Capan-2 tumor xenografts [2],0.08 min⁻¹
same,k4,Capan-2 tumor xenografts [2],0.05 min⁻¹
same,vB (vascular fraction),Capan-2 tumor xenografts [2],0.08 l/l
same,activity remaining after 24 h of incubation relative to initial radioactivity,"HT-1080-FAP cells [3]; 24 h incubation, FAPI-01 compared to binding after 10 min",34%
same,internalized proportion of uptake,"HT-1080-FAP cells [3]; Lu-177 labeled, after 60 min",96%
same,uptake into FAP-α expressing cells,"HT-1080-FAP cells [3]; Lu-177 labeled, after 60 min",20.15±1.74 % ID
same,binding to CD26 expressing cells (% ID),human CD26,0.13±0.01%
same,Blood uptake,Capan-2 tumor xenografts [4],0.83 ± 0.127 % ID/g
same,Brain uptake,Capan-2 tumor xenografts [4],0.05 ± 0.010 % ID/g
same,Heart uptake,Capan-2 tumor xenografts [4],0.37 ± 0.031 % ID/g
same,Intestines uptake,Capan-2 tumor xenografts [4],0.30 ± 0.064 % ID/g
same,Kidneys uptake,Capan-2 tumor xenografts [4],1.45 ± 0.106 % ID/g
same,Liver uptake,Capan-2 tumor xenografts [4],0.36 ± 0.015 % ID/g
same,Lungs uptake,Capan-2 tumor xenografts [4],0.72 ± 0.021 % ID/g
same,Muscle uptake,Capan-2 tumor xenografts [4],0.94 ± 0.168 % ID/g
same,Spleen uptake,Capan-2 tumor xenografts [4],0.25 ± 0.015 % ID/g
same,Tumor uptake,Capan-2 tumor xenografts [4],3.82 ± 0.390 % ID/g
